In PMC11979685, “Synthesis of Derivatives of the Antibiotic Albicidin: The N‐Terminal Fragment as Key to Control Potency and Resistance Mediated by the Binding Protein AlbA” (Chemistry (Weinheim an Der Bergstrasse, Germany), 2025):
In brackets after ≈: the same amount, converted by molar mass.

Experiments:
[1] = test system: Micrococcus luteus DSM 1790; experiment: MIC determination (broth microdilution); format: cell-based; details: DSM1790, read-out: MIC M. luteus
Summary of the method: (§1)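 Inoculum: overnight LB culture (37°C, 200 rpm) → 0.5 McFarland in CA-MHB II, ~1x10^6 CFU mL-1. DMSO dilution series, final 128–0.016 μg/mL/well. 16 h, 30−37°C. Visual read. CLSI M07-A9.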

E. coli DSM1116 = experiment: MIC determination (broth microdilution); format: cell-based; details: Escherichia coli, DSM1116; read-out: MIC E. coli DSM1116
Summary of the method: as §1

Bacillus subtilis DSM 10 = experiment: MIC determination (broth microdilution); format: cell-based; details: DSM10, read-out: MIC B. sub.
Summary of the method: as §1

[2] = test system: Mycobacterium phlei DSM 750; experiment: MIC determination (broth microdilution); format: cell-based; details: Mycolicibacterium phlei, DSM750; read-out: MIC M. phlei
Summary of the method: as §1

E. coli BW25113 = experiment: MIC determination (broth microdilution); format: cell-based; details: Escherichia coli, BW25113; read-out: MIC E. coli BW25113
Summary of the method: as §1

E. coli DNA gyrase = E. coli DNA gyrase (Escherichia coli, UniProt P0AES4); experiment: E. coli gyrase DNA cleavage assay; format: biochemical; design: key to Gyrase inhibition strong+ / weak −: + strong inhibition; − weak inhibition in comparison to compound 16; details: for Gyrase inhibition strong+ / weak −: qualitative DNA cleavage assay at 1 μM and 10 μM, in comparison to compound 16; for CC50: E. coli gyrase DNA cleavage, read-out: CC50 (concentration at half-maximum cleavage)
Summary of the method: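 Relaxed pBR322 incubated with wild-type E. coli gyrase (50 nM stock for pre-screening, 40 nM stock for IC50 runs) and compound in buffer with 1 mM ATP, 2% DMSO, 30 min at 37 °C; cleavage complexes trapped with SDS/proteinase K. Linearized DNA as percentage of total by ethidium-stained agarose gel; four-parameter fit.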

[3] = Reverse-phase HPLC retention time as estimate of lipophilicity; format: physicochemical; details: indicator of lipophilicity
Summary of the method: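 Retention time on a reverse-phase HPLC column served as a relative lipophilicity estimate across structurally related albicidin derivatives.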

Sequence of E. coli DNA gyrase (P0AES4 whole entry): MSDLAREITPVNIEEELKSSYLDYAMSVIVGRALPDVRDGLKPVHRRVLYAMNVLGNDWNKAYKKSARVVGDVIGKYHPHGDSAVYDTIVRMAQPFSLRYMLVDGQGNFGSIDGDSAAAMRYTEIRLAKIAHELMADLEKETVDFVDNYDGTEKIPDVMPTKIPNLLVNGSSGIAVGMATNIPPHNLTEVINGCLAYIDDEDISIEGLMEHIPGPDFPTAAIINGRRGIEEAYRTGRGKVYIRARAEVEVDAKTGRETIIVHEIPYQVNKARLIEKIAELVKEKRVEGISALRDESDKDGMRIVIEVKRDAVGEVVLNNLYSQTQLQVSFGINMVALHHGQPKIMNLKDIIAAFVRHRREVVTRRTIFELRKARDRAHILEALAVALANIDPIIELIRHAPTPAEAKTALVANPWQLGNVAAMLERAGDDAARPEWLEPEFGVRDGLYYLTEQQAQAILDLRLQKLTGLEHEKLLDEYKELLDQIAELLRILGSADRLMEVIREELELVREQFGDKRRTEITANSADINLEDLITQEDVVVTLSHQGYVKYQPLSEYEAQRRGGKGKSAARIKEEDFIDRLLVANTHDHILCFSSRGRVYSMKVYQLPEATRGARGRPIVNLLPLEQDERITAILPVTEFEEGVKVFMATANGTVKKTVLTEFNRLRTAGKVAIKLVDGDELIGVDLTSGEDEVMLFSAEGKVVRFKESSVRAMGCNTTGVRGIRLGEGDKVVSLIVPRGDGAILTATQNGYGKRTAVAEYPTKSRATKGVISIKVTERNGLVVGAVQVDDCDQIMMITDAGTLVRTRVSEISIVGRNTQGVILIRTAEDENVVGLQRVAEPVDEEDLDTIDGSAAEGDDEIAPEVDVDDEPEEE

Row | Compound | MIC [1] [µg/mL] | MIC (E. coli DSM1116) [µg/mL] | MIC (Bacillus subtilis DSM 10) [µg/mL] | MIC [2] [µg/mL] | MIC (E. coli BW25113) [µg/mL] | Gyrase inhibition strong+ / weak − (E. coli DNA gyrase) | Rt (retention time) [3] [min] | CC50 (E. coli DNA gyrase) [nM]
1 | COc1c(NC(=O)c2ccc(NC(=O)c3ccc(NC(=O)[C@H](Cc4c[nH]nn4)NC(=O)c4ccc(NC(=O)c5cnc6ccccc6c5)cc4)cn3)c(OC)c2O)ccc(C(=O)O)c1O [compound 13] | 0.125 (≈ 0.142 µM) | 0.031 (≈ 0.0352 µM) | 0.125 (≈ 0.142 µM) | 1 (≈ 1.14 µM) | ≤ 0.016 | + | 8.07 | 
2 | COc1c(NC(=O)c2ccc(NC(=O)c3ccc(NC(=O)[C@H](Cc4c[nH]nn4)NC(=O)c4ccc(NC(=O)c5ccc(C#N)cc5)cc4)cn3)c(OC)c2O)ccc(C(=O)O)c1O [compound 4] | 0.125 (≈ 0.146 µM) | 0.031 (≈ 0.0363 µM) | 0.125 (≈ 0.146 µM) | 4 (≈ 4.68 µM) | ≤ 0.016 | + | 8.20 | 12
3 | CCn1cc(C(=O)Nc2ccc(C(=O)N[C@@H](Cc3c[nH]nn3)C(=O)Nc3ccc(C(=O)Nc4ccc(C(=O)Nc5ccc(C(=O)O)c(O)c5OC)c(O)c4OC)nc3)cc2)c(=O)c2ccc(C)nc21 [compound 18] | 0.031 (≈ 0.033 µM) | 0.031 (≈ 0.033 µM) | 0.063 (≈ 0.067 µM) | ≥ 8 | 0.063 (≈ 0.067 µM) | − | 9.24 | 
4 | COc1c(NC(=O)c2ccc(NC(=O)c3ccc(NC(=O)[C@H](Cc4c[nH]nn4)NC(=O)c4ccc(NC(=O)c5ccc6ncccc6c5)cc4)cn3)c(OC)c2O)ccc(C(=O)O)c1O [compound 14] | 0.125 (≈ 0.142 µM) | 0.016 (≈ 0.0182 µM) | 0.25 (≈ 0.284 µM) | 4 (≈ 4.54 µM) | ≤ 0.016 | + | 7.67 | 
5 | COc1c(NC(=O)c2ccc(NC(=O)c3ccc(NC(=O)[C@H](Cc4c[nH]nn4)NC(=O)c4ccc(NC(=O)c5ccc6ncsc6c5)cc4)cn3)c(OC)c2O)ccc(C(=O)O)c1O [compound 22] | 0.125 (≈ 0.141 µM) | ≤ 0.016 | 0.125 (≈ 0.141 µM) | 2 (≈ 2.26 µM) | ≤ 0.016 | + | 7.65 | 43
